# Experiments:
# Test in all cases: Test D controlled growth environment herbicide test, pre- and postemergence
# Assay type in all cases: in vivo
# [1] = system: windgrass (Apera spica-venti)
# Procedure, shortened: (§1)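 Rating is visual, 0–100 scale (100 = complete control), made against untreated plants 14–21 d after treatment in controlled growth conditions. Postemergence sprays went onto 1- to 4-leaf plants in peat medium; preemergence sprays onto silt loam after sowing; formulation included a surfactant.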
# [2] = system: kochia (Kochia scoparia)
# Procedure, shortened: as §1
# [3] = system: chickweed (common chickweed, Stellaria media)
# Procedure, shortened: as §1
# [4] = system: wheat, winter (winter wheat, Triticum aestivum)
# Procedure, shortened: as §1
# [5] = system: lambsquarters (Chenopodium album)
# Procedure, shortened: as §1
# [6] = system: wheat, spring (spring wheat, Triticum aestivum)
# Procedure, shortened: as §1
# [7] = system: deadnettle (henbit deadnettle, Lamium amplexicaule)
# Procedure, shortened: as §1
# [8] = system: field violet (Viola arvensis)
# Procedure, shortened: as §1
# [9] = system: blackgrass (Alopecurus myosuroides)
# Procedure, shortened: as §1
# [10] = system: foxtail, green (green foxtail, Setaria viridis)
# Procedure, shortened: as §1
# [11] = system: canarygrass (Phalaris minor)
# Procedure, shortened: as §1
# [12] = system: ryegrass, Italian (Italian ryegrass, Lolium multiflorum)
# Procedure, shortened: as §1
# [13] = system: Russian thistle (Salsola kali)
# Procedure, shortened: as §1
# [14] = Postemergence, 31 g ai/ha, scale 0 to 100 (0 no effect, 100 complete control)
# [15] = Postemergence, 125 g ai/ha, visual rating on scale 0 (no effect) to 100 (complete control), 14 to 21 d
# [16] = Postemergence, 250 g ai/ha, scale 0 to 100 (0 no effect, 100 complete control)
# [17] = Preemergence, 125 g ai/ha, scale 0 to 100 (0 no effect, 100 complete control)
# [18] = Preemergence, 250 g ai/ha, scale 0 to 100 (0 no effect, 100 complete control)
# [19] = postemergence, 62 g ai/ha, scale 0 to 100, 0 no effect, 100 complete control
smiles,measurement,setting,value
Cc1cc(C)c2sc(C)c(-c3c(OC(=O)OCCCl)c(C)nn(C)c3=O)c2c1 [Compound 85],Windgrass plant response rating,[1]; [14],60
same,"Plant response rating, Windgrass",[1]; [15],80
same,"Plant response rating, Windgrass",[1]; [16],85
same,"Plant response rating (scale of 0 to 100), Windgrass","[1]; Preemergence, 31 g ai/ha",55
same,"Plant response rating (scale of 0 to 100), Windgrass","[1]; Preemergence, 62 g ai/ha",70
same,"Plant response rating, Windgrass",[1]; [17],95
same,"Plant response rating, Windgrass",[1]; [18],100
same,"Plant response rating, Windgrass",[1]; [19],70
same,Kochia plant response rating,[2]; [14],40
same,"Plant response rating, Kochia",[2]; [15],70
same,"Plant response rating, Kochia",[2]; [16],75
same,"Plant response rating (scale of 0 to 100), Kochia","[2]; Preemergence, 31 g ai/ha",5
same,"Plant response rating (scale of 0 to 100), Kochia","[2]; Preemergence, 62 g ai/ha",10
same,"Plant response rating, Kochia",[2]; [17],10
same,"Plant response rating, Kochia",[2]; [18],45
same,"Plant response rating, Kochia",[2]; [19],65
same,Chickweed plant response rating,[3]; [14],90
same,"Plant response rating, Chickweed",[3]; [15],100
same,"Plant response rating, Chickweed",[3]; [16],100
same,"Plant response rating (scale of 0 to 100), Chickweed","[3]; Preemergence, 31 g ai/ha",100
same,"Plant response rating (scale of 0 to 100), Chickweed","[3]; Preemergence, 62 g ai/ha",100
same,"Plant response rating, Chickweed",[3]; [17],100
same,"Plant response rating, Chickweed",[3]; [18],100
same,"Plant response rating, Chickweed",[3]; [19],100
same,"Wheat, Winter plant response rating",[4]; [14],0
same,"Plant response rating, Wheat, Winter",[4]; [15],0
same,"Plant response rating, Wheat, Winter",[4]; [16],10
same,"Plant response rating (scale of 0 to 100), Wheat, Winter","[4]; Preemergence, 31 g ai/ha",0
same,"Plant response rating (scale of 0 to 100), Wheat, Winter","[4]; Preemergence, 62 g ai/ha",0
same,"Plant response rating, Wheat, Winter",[4]; [17],5
same,"Plant response rating, Wheat, Winter",[4]; [18],15
same,"Plant response rating, Wheat, Winter",[4]; [19],0
same,Lambsquarters plant response rating,[5]; [14],80
same,"Plant response rating, Lambsquarters",[5]; [15],95
same,"Plant response rating, Lambsquarters",[5]; [16],95
same,"Plant response rating (scale of 0 to 100), Lambsquarters","[5]; Preemergence, 31 g ai/ha",25
same,"Plant response rating (scale of 0 to 100), Lambsquarters","[5]; Preemergence, 62 g ai/ha",100
same,"Plant response rating, Lambsquarters",[5]; [17],100
same,"Plant response rating, Lambsquarters",[5]; [18],100
same,"Plant response rating, Lambsquarters",[5]; [19],85
same,"Wheat, Spring plant response rating",[6]; [14],0
same,"Plant response rating, Wheat, Spring",[6]; [15],15
same,"Plant response rating, Wheat, Spring",[6]; [16],20
same,"Plant response rating (scale of 0 to 100), Wheat, Spring","[6]; Preemergence, 31 g ai/ha",0
same,"Plant response rating (scale of 0 to 100), Wheat, Spring","[6]; Preemergence, 62 g ai/ha",0
same,"Plant response rating, Wheat, Spring",[6]; [17],15
same,"Plant response rating, Wheat, Spring",[6]; [18],40
same,"Plant response rating, Wheat, Spring",[6]; [19],0
same,Deadnettle plant response rating,[7]; [14],10
same,"Plant response rating, Deadnettle",[7]; [15],40
same,"Plant response rating, Deadnettle",[7]; [16],45
same,"Plant response rating (scale of 0 to 100), Deadnettle","[7]; Preemergence, 31 g ai/ha",0
same,"Plant response rating (scale of 0 to 100), Deadnettle","[7]; Preemergence, 62 g ai/ha",0
same,"Plant response rating, Deadnettle",[7]; [17],10
same,"Plant response rating, Deadnettle",[7]; [18],35
same,"Plant response rating, Deadnettle",[7]; [19],15
same,Field Violet plant response rating,[8]; [14],65
same,"Plant response rating, Field Violet",[8]; [15],75
same,"Plant response rating, Field Violet",[8]; [16],90
same,"Plant response rating (scale of 0 to 100), Field Violet","[8]; Preemergence, 31 g ai/ha",65
same,"Plant response rating (scale of 0 to 100), Field Violet","[8]; Preemergence, 62 g ai/ha",70
same,"Plant response rating, Field Violet",[8]; [17],95
same,"Plant response rating, Field Violet",[8]; [18],100
same,"Plant response rating, Field Violet",[8]; [19],65
same,Blackgrass plant response rating,[9]; [14],75
same,"Plant response rating, Blackgrass",[9]; [15],90
same,"Plant response rating, Blackgrass",[9]; [16],90
same,"Plant response rating (scale of 0 to 100), Blackgrass","[9]; Preemergence, 31 g ai/ha",75
same,"Plant response rating, Blackgrass","[9]; Preemergence, 62 g ai/ha, scale 0 to 100 (0 no effect, 100 complete control)",80
same,"Plant response rating, Blackgrass",[9]; [17],85
same,"Plant response rating, Blackgrass",[9]; [18],85
same,"Plant response rating, Blackgrass",[9]; [19],80
same,"Foxtail, Green plant response rating",[10]; [14],75
same,"Plant response rating, Foxtail, Green",[10]; [15],85
same,"Plant response rating, Foxtail, Green",[10]; [16],85
same,"Plant response rating (scale of 0 to 100), Foxtail, Green","[10]; Preemergence, 31 g ai/ha",25
same,"Plant response rating (scale of 0 to 100), Foxtail, Green","[10]; Preemergence, 62 g ai/ha",55
same,"Plant response rating, Foxtail, Green",[10]; [17],100
same,"Plant response rating, Foxtail, Green",[10]; [18],100
same,"Plant response rating, Foxtail, Green",[10]; [19],80
same,Canarygrass plant response rating,[11]; [14],75
same,"Plant response rating, Canarygrass",[11]; [15],85
same,"Plant response rating, Canarygrass",[11]; [16],90
same,"Plant response rating (scale of 0 to 100), Canarygrass","[11]; Preemergence, 31 g ai/ha",80
same,"Plant response rating (scale of 0 to 100), Canarygrass","[11]; Preemergence, 62 g ai/ha",90
same,"Plant response rating, Canarygrass",[11]; [17],90
same,"Plant response rating, Canarygrass",[11]; [18],95
same,"Plant response rating, Canarygrass",[11]; [19],85
same,"Ryegrass, Italian plant response rating",[12]; [14],80
same,"Plant response rating, Ryegrass, Italian",[12]; [15],85
same,"Plant response rating, Ryegrass, Italian",[12]; [16],90
same,"Plant response rating (scale of 0 to 100), Ryegrass, Italian","[12]; Preemergence, 31 g ai/ha",55
same,"Plant response rating (scale of 0 to 100), Ryegrass, Italian","[12]; Preemergence, 62 g ai/ha",80
same,"Plant response rating, Ryegrass, Italian",[12]; [17],85
same,"Plant response rating, Ryegrass, Italian",[12]; [18],90
same,"Plant response rating, Ryegrass, Italian",[12]; [19],85
same,Russian Thistle plant response rating,[13]; [14],65
same,"Plant response rating, Russian Thistle",[13]; [15],80
same,"Plant response rating, Russian Thistle",[13]; [16],90
same,"Plant response rating (scale of 0 to 100), Russian Thistle","[13]; Preemergence, 31 g ai/ha",5
same,"Plant response rating (scale of 0 to 100), Russian Thistle","[13]; Preemergence, 62 g ai/ha",10
same,"Plant response rating, Russian Thistle",[13]; [17],25
same,"Plant response rating, Russian Thistle",[13]; [18],75
same,"Plant response rating, Russian Thistle",[13]; [19],75
